Values after ≈ are worked out from the molar mass of the structure shown. Values joined by “and” are separate entries in the source; they are usually repeats but may differ in a detail not shown here. Equal entries are not always repeated.
Key:
[1] = test system: Klebsiella pneumoniae; assay: microbe, parasite or virus in culture; conditions: ATCC 700603, 18 h, ASSAY_TEST Inhibition of Bacterial Growth, detection method Absorption (OD600), MEDIA CAMHB, plate type 384well, NBS, CORNING #3640
Description: Antibacterial activity against Klebsiella pneumoniae MDR ATCC 70063 (CO-ADD:GN_003); MIC in CAMBH media using NBS plates, by OD(600)

[2] = test system: HEK293; assay: cells; type: functional, Homo sapiens, ATCC CRL1573; conditions: ASSAY_TEST Inhibition of Cell Viability, detection method Resazurin, Fluorescence (ex560/em590), MEDIA DMEM with 10% FBS, plate type 384well, TC, CORNING #3712, time 18 hr
[3] = test system: Candida albicans; assay: microbe, parasite or virus in culture; conditions: ATCC 90028, ASSAY_TEST Inhibition of Fungal Growth, detection method Absorption (OD530), plate type 384well, NBS, CORNING #3640
Description: (§1) Antifungal activity against Candida albicans ATCC 90028 (CO-ADD:FG_001); MIC in YNB media using NBS plates, by OD630

[4] = test system: Acinetobacter baumannii; assay: microbe, parasite or virus in culture; conditions: ATCC 19606, 18 h, ASSAY_TEST Inhibition of Bacterial Growth, detection method Absorption (OD600), MEDIA CAMHB, plate type 384well, NBS, CORNING #3640
Description: Antibacterial activity against Acinetobacter baumannii ATCC 19606 (CO-ADD:GN_034); MIC in CAMBH media using NBS plates, by OD600

[5] = test system: Escherichia coli; assay: microbe, parasite or virus in culture; conditions: ATCC 25922, 18 h, ASSAY_TEST Inhibition of Bacterial Growth, detection method Absorption (OD600), MEDIA CAMHB, plate type 384well, NBS, CORNING #3640
Description: Antibacterial activity against Escherichia coli ATCC 25922 (CO-ADD:GN_001); MIC in CAMBH media using NBS plates, by OD(600)

[6] = test system: Staphylococcus aureus; assay: microbe, parasite or virus in culture; conditions: ATCC 43300, 18 h, ASSAY_TEST Inhibition of Bacterial Growth, detection method Absorption (OD600), MEDIA CAMHB, plate type 384well, NBS, CORNING #3640
Description: (§2) Antibacterial activity against Staphylococcus aureus MRSA ATCC 43300 (CO-ADD:GP_020); MIC in CAMBH media, using NBS plates, by OD(600)

[7] = test system: Pseudomonas aeruginosa; assay: microbe, parasite or virus in culture; conditions: ATCC 27853, 18 h, ASSAY_TEST Inhibition of Bacterial Growth, detection method Absorption (OD600), MEDIA CAMHB, plate type 384well, NBS, CORNING #3640
Description: Antibacterial activity against Pseudomonas aeruginosa ATCC 27853 (CO-ADD:GN_042); MIC in CAMBH media using NBS plates, by OD(600)

[8] = test system: Cryptococcus neoformans
Description: Antifungal activity against Cryptococcus neoformans H99 ATCC 208821 (CO-ADD:FG_002); MIC in YNB media using NBS plates, by Resazurin OD(600-570)

[9] = test system: Candida albicans; conditions: ASSAY_TEST Inhibition of Fungal Growth; detection method Absorption (OD530); plate type 384well; NBS; CORNING #3640
Description: as §1

[10] = test system: Staphylococcus aureus; conditions: ASSAY_TEST Inhibition of Bacterial Growth, detection method Absorption (OD600), MEDIA CAMHB, plate type 384well, NBS, CORNING #3640, time 18 hr
Description: as §2

[11] = Homo sapiens, ATCC CRL1573, HEK293, read-out: CC50

Structure (SMILES)	MIC [1] [µg/mL]	CC50 [2, 11] [µg/mL]	MIC [3] [µg/mL]	MIC [4] [µg/mL]	MIC [5] [µg/mL]	MIC [6] [µg/mL]	MIC [7] [µg/mL]	MIC [8] [µg/mL]	CC50 [2]	MIC [9]	MIC [10] [µg/mL]
CC(C)CCc1sc(NC(=O)c2cc(NC(=O)c3cc(NC(=N)c4ccccc4)cn3C)cn2C)nc1C(=O)NCCCN(C)C.O=C(O)C(F)(F)F.O=C(O)C(F)(F)F	> 32	> 32	> 32	> 32	> 32	> 32	> 32	4	–	–	–
COCCOC1CCN(CCNC(=O)c2cc(NC(=O)c3cc(NC(=O)c4ccc(/C=C/c5cnc6ccccc6c5)cc4)cn3C)cn2C)CC1	> 32	1.96 (≈ 2.78 µM)	> 32	> 32	> 32	0.5 (≈ 0.71 µM)	> 32	> 32	–	–	–
COc1cccc(/C=C/c2ccc(C(=O)Nc3cc(C(=O)Nc4cc(C(=O)NCCC(=N)N)n(C)c4)n(C)c3)cc2)c1.O=C(O)C(F)(F)F	> 32	15.8	> 32	> 32	> 32	8	> 32	–	10.1 µg/mL and 10.7 µg/mL	16 µg/mL and 32 µg/mL	4
COc1ccc(/C=C/c2ccc(C(=O)Nc3cc(C(=O)Nc4cc(C(=O)NCCN5CCCCC5)n(CCCc5ccccc5)c4)n(C)c3)cn2)cc1.O=C(O)C(F)(F)F.O=C(O)C(F)(F)F	> 32	> 32	> 32	> 32	> 32	> 32	> 32	16	–	–	–
CC(C)n1cc(NC(=O)c2cc(NC(=O)c3cc4ccccc4oc3=O)cn2C)cc1C(=O)Nc1cc(C(=O)NCCCN(C)C)n(C)c1.O=C(O)C(F)(F)F	> 32	> 32	> 32	> 32	> 32	> 32	> 32	32	–	–	–
CN(C)CCNC(=O)c1cc(NC(=O)c2cc(NC(=O)c3ccc(/C=C/c4cnc5ccccc5c4)cc3)cn2C)cn1C.O=C(O)C(F)(F)F.O=C(O)C(F)(F)F	> 32	–	32	> 32	> 32	0.5	> 32	16	4.83 µg/mL and 2.72 µg/mL and 6.4 µg/mL	32 µg/mL and >32 µg/mL	1

Source: ChEMBL document CHEMBL4513139, “CO-ADD screening of University of Strathclyde (UK) compounds”
